Results: patent US20220117921A1, “PHARMACEUTICAL COMBINATIONS FOR THE TREATMENT OF PAIN” (IMUNEKS FARMA ILAC SANAYI VE TICARET A.S., priority 2018, published 2022)

Tested on: female Albino Wistar rats
Assay: Hot plate test (heat induced pain model)
Assay type: in vivo, rat
Conditions: comparison between groups

SMILES: CC(C(=O)O)c1ccc(-c2ccccc2)c(F)c1 (stereo not shown) [FBP, Flurbiprofen]
- analgesic effect in the hot plate test (in words): lowest analgesic effect compared to all the other groups except the placebo group
